The values that follow come from ChEMBL document CHEMBL1141733, “Cardiovascular effects of aspidofractinine-type alkaloids from Kopsia” (1998).

In test [1] the test system is Rattus norvegicus. The experiment in a line: Antihypertensive activity in anesthetized SHR rat assessed as decrease in basal mean arterial blood pressure at 3 mg/kg, iv. It is filed as functional, Artery.
For test [2], the system named is Rattus norvegicus. The experiment in a line: Antihypertensive activity in anesthetized SHR rat assessed as decrease in heart rate at 3 mg/kg, iv after 10 mins. It is filed as functional.
Test [3] has as its system Rattus norvegicus. In words: Antihypertensive activity in anesthetized SHR rat assessed as decrease in basal mean arterial blood pressure at 3 mg/kg, iv after 10 mins. Format: functional, Artery.
In test [4] the test system is Rattus norvegicus. The experiment in a line: Antihypertensive activity in anesthetized SHR rat assessed as increase in heart rate at 3 mg/kg, iv. Format: functional.
Test [5] deals with Rattus norvegicus. In words: Antihypertensive activity in anesthetized SHR rat assessed as decrease in basal mean arterial blood pressure at 2 mg/kg, iv after 24 to 26 seconds. Format: functional, Artery.
Test [6] deals with Rattus norvegicus. In words: Antihypertensive activity in anesthetized SHR rat assessed as heart rate at 2 mg/kg, iv after 10 mins. It is filed as functional.
The test system of test [7] is Rattus norvegicus. The experiment in a line: Antihypertensive activity in anesthetized SHR rat assessed as basal mean arterial blood pressure at 2 mg/kg, iv after 10 mins. It is filed as functional, Artery.
Test [8] has as its system Rattus norvegicus. The experiment in a line: Antihypertensive activity in anesthetized SHR rat assessed as decrease in heart rate at 2 mg/kg, iv after 24 to 26 seconds. Format: functional.
Test [9] has as its system Rattus norvegicus. The experiment in a line: Increase in basal mean arterial blood pressure anesthetized SHR rat at 0.2 mg/kg, iv. It is filed as functional, organism-based. Set-up: dose 0.2 mg/kg.
Test [10] concerns Rattus norvegicus. In words: (§1) Antihypertensive activity in anesthetized SHR rat assessed as decrease in heart rate at 10 mg/kg, iv. Format: functional, organism-based. Set-up: dose 10 mg/kg.
The test system of test [11] is Rattus norvegicus. The experiment in a line: Antihypertensive activity in anesthetized SHR rat assessed as decrease in heart rate at 5 mg/kg, iv. Format: functional, organism-based. Set-up: dose 5 mg/kg.
Test [12] has as its system Rattus norvegicus. In words: Antihypertensive activity in anesthetized SHR rat assessed as decrease in heart rate at 1 mg/kg, iv. Format: functional, organism-based. Set-up: dose 1 mg/kg.
In test [13] the test system is Rattus norvegicus. The experiment in a line: Antihypertensive activity in anesthetized SHR rat assessed as decrease in heart rate at 0.5 mg/kg, iv. Set-up: dose 0.5 mg/kg. It is filed as functional, organism-based.
For test [14], the system named is Rattus norvegicus. The experiment in a line: Increase in basal mean arterial blood pressure anesthetized SHR rat at 10 mg/kg, iv. Format: functional, organism-based. Set-up: dose 10 mg/kg.
Test [15] relates to Rattus norvegicus. In words: Increase in basal mean arterial blood pressure anesthetized SHR rat at 2 mg/kg, iv. Format: functional, organism-based. Set-up: dose 2 mg/kg.
In test [16] the test system is Rattus norvegicus. The experiment in a line: Increase in basal mean arterial blood pressure anesthetized SHR rat at 1 mg/kg, iv. Format: functional, organism-based. Set-up: dose 1 mg/kg.
Test [17] has as its system Rattus norvegicus. The experiment in a line: Antihypertensive activity in anesthetized SHR rat assessed as decrease in heart rate at 2 mg/kg, iv. It is filed as functional, organism-based. Set-up: dose 2 mg/kg.
For test [18], the system named is Rattus norvegicus. The experiment in a line: Increase in basal mean arterial blood pressure anesthetized SHR rat at 5 mg/kg, iv. Format: functional, organism-based. Set-up: dose 5 mg/kg.
Test [19] relates to Rattus norvegicus. The experiment in a line: Antihypertensive activity in anesthetized SHR rat assessed as decrease in heart rate at 0.2 mg/kg, iv. Format: functional, organism-based. Set-up: dose 0.2 mg/kg.
Test [20] has as its system Rattus norvegicus. The experiment in a line: Increase in basal mean arterial blood pressure anesthetized SHR rat at 0.5 mg/kg, iv. It is filed as functional, organism-based. Set-up: dose 0.5 mg/kg.
Test [21] relates to Rattus norvegicus. In words: Antihypertensive activity in iv dosed anesthetized SHR rat assessed as concomitant fall in heart rate. Format: functional, organism-based.
In test [22] the test system is Rattus norvegicus. The experiment in a line: Antihypertensive activity in iv dosed anesthetized SHR rat assessed as decrease in basal mean arterial blood pressure. Format: functional, organism-based. The following applies: Artery.
Test [23] has as its system Rattus norvegicus. In words: Antihypertensive activity in anesthetized SHR rat assessed as hypotensive response lasting time at 10 mg/kg, iv. It is filed as functional.
The subject of test [24] is Rattus norvegicus. The experiment in a line: Antihypertensive activity in anesthetized SHR rat assessed as decrease in heart rate at 20 mg/kg, iv after 1 to 1.5 mins. Format: functional.
Test [25] has as its system Rattus norvegicus. In words: Antihypertensive activity in anesthetized SHR rat assessed as decrease in basal mean arterial blood pressure at 20 mg/kg, iv after 1 to 1.5 mins. It is filed as functional, Artery.
The test system of test [26] is Rattus norvegicus. The experiment in a line: Antihypertensive activity in anesthetized SHR rat assessed as decrease in heart rate at 20 mg/kg, iv after 10 mins. It is filed as functional.
Test [27] deals with Rattus norvegicus. In words: Antihypertensive activity in anesthetized SHR rat assessed as decrease in basal mean arterial blood pressure at 20 mg/kg, iv after 10 mins. It is filed as functional, Artery.
Test [28] deals with Rattus norvegicus. The experiment in a line: Antihypertensive activity in anesthetized SHR rat assessed as decrease in basal mean arterial blood pressure at 10 mg/kg, iv pretreated with atropine for 10 mins. Format: functional, Artery.
Test [29] concerns Rattus norvegicus. In words: Antihypertensive activity in anesthetized SHR rat assessed as decrease in heart rate at 10 mg/kg, iv pretreated with phentolamine for 10 mins. It is filed as functional.
In test [30] the test system is Rattus norvegicus. The experiment in a line: Antihypertensive activity in anesthetized SHR rat assessed as decrease in heart rate at 10 mg/kg, iv pretreated with hexamethonium for 10 mins. It is filed as functional, organism-based. Set-up: dose 10 mg/kg.
Test [31] deals with Rattus norvegicus. The experiment in a line: Antihypertensive activity in iv dosed anesthetized WKY rat assessed as hypotensive activity. It is filed as functional, organism-based.
Test [32] relates to Rattus norvegicus. The test is described as §1. Format: functional.
Test [33] relates to Rattus norvegicus. In words: Antihypertensive activity in anesthetized SHR rat assessed as decrease in basal mean arterial blood pressure at 10 mg/kg, iv pretreated with hexamethonium for 10 mins. Set-up: dose 10 mg/kg. It is filed as functional, organism-based. The following applies: Artery.
Test [34] relates to Rattus norvegicus. The experiment in a line: Antihypertensive activity in anesthetized SHR rat assessed as decrease in basal mean arterial blood pressure at 10 mg/kg, iv pretreated with phentolamine for 10 mins. It is filed as functional, Artery.
Test [35] concerns Rattus norvegicus. The experiment in a line: Antihypertensive activity in anesthetized SHR rat assessed as decrease in basal mean arterial blood pressure at 10 mg/kg, iv. It is filed as functional, Artery.
The subject of test [36] is Rattus norvegicus. In words: Antihypertensive activity in anesthetized SHR rat assessed as decrease in heart rate at 10 mg/kg, iv pretreated with atropine for 10 mins. Format: functional.

Activity calls are given as the source filed them. The calls are words filed in the database; no cut-off is given here.

`Cc1ccc(N(CC2=NCCN2)c2cccc(O)c2)cc1` [PHENTOLAMINE]: the Activity in the test on Rattus norvegicus [1] is 106.7 mmHg; in the test with Rattus norvegicus [2] it was 356.7 bpm; in the test with Rattus norvegicus [3], 108.4 mmHg; in the test on Rattus norvegicus [4] it was 372.5 bpm.

On to `CN1[C@@H]2CC[C@H]1C[C@@H](OC(=O)C(CO)c1ccccc1)C2` (stereo partly drawn) [ATROPINE], for which the Activity with Rattus norvegicus [5] is reported as 155.6 mmHg; in the test on Rattus norvegicus [6] it was 368 bpm; with Rattus norvegicus [7], 160.9 mmHg; in the test on Rattus norvegicus [8], 371 bpm.

`COC(=O)N1c2c(OC)cccc2[C@@]23CCN4[C@@H]5C[C@@H](OC)[C@]6(CC[C@]12[C@](O)(C(=O)OC)[C@H]6O5)[C@H]43`: the result in the test on Rattus norvegicus [9], in the test on Rattus norvegicus [10], in the test on Rattus norvegicus [11], in the test on Rattus norvegicus [12], in the test with Rattus norvegicus [13] and with Rattus norvegicus [14] was Active. Also, the outcome in the test with Rattus norvegicus [15], in the test with Rattus norvegicus [16], with Rattus norvegicus [17], in the test on Rattus norvegicus [18], with Rattus norvegicus [19] and in the test on Rattus norvegicus [20] was Active. The Activity result with Rattus norvegicus [21] and in the test with Rattus norvegicus [22] was “Dose-dependent effect” throughout.

For `COC(=O)N1c2ccccc2[C@]23CCN4CC=C[C@@]5(CC[C@@]12[C@@](O)(C(=O)OC)[C@H]5O)[C@@H]43` [KOPSAPORINE], the Activity was 3.6 min in the test on Rattus norvegicus [23] and “Dose-dependent effect” in the test on Rattus norvegicus [22].

`C[N+](C)(C)CCCCCC[N+](C)(C)C.[Cl-].[Cl-]` [HEXAMETHONIUM CHLORIDE]: the Activity in the test on Rattus norvegicus [24] is 313.6 bpm; with Rattus norvegicus [25], 92 mmHg; in the test on Rattus norvegicus [26], 296.8 bpm; with Rattus norvegicus [27], 104.8 mmHg.

As to `COC(=O)N1c2c(OC)cccc2[C@@]23CCN4CC=C[C@]5(CC[C@]12[C@](O)(C(=O)OC)[C@@H]5O)[C@H]43` [KOPSINGINE], the Activity in the test on Rattus norvegicus [28] was -51 mmHg; in the test on Rattus norvegicus [29] it was 66.7 bpm; with Rattus norvegicus [23], 3.9 min; in the test on Rattus norvegicus [31] it was “Dose-dependent effect”; in the test on Rattus norvegicus [32] it was -101 bpm; in the test on Rattus norvegicus [34], 30.7 mmHg. The Activity entry in the test with Rattus norvegicus [21] is “Dose-dependent effect”; in the test with Rattus norvegicus [35], -68.5 mmHg; in the test on Rattus norvegicus [36], -71.5 bpm; in the test on Rattus norvegicus [22], “Dose-dependent effect”. Further, the outcome in the test with Rattus norvegicus [30] and in the test on Rattus norvegicus [33] was inactive.

Regarding `COC(=O)N1c2c(OC)cccc2[C@@]23CCN4CCC[C@]5(CC[C@]12[C@](O)(C(=O)OC)[C@@H]5O)[C@H]43` [DIHYDROKOPSINGINE], the Activity in the test on Rattus norvegicus [29] is -52.5 bpm; with Rattus norvegicus [32], -49.2 bpm; in the test with Rattus norvegicus [34] it was 18.2 mmHg; with Rattus norvegicus [21] it was “Dose-dependent effect”; in the test on Rattus norvegicus [35], -44.7 mmHg; with Rattus norvegicus [22], “Dose-dependent effect”. The result in the test with Rattus norvegicus [30] and with Rattus norvegicus [33] was inactive.

`COC(=O)N1c2c(OC)cccc2[C@@]23CCN4[C@H]5CC[C@]6(CC[C@]12[C@](O)(C(=O)OC)[C@@H]6O5)[C@H]43`: the outcome in the test on Rattus norvegicus [9], in the test on Rattus norvegicus [10], with Rattus norvegicus [11], with Rattus norvegicus [13], in the test with Rattus norvegicus [14] and with Rattus norvegicus [15] was Active. Besides, the result in the test on Rattus norvegicus [16], in the test on Rattus norvegicus [30], in the test with Rattus norvegicus [17], in the test with Rattus norvegicus [18], in the test on Rattus norvegicus [19] and in the test with Rattus norvegicus [33] was Active. Besides, the outcome in the test on Rattus norvegicus [20] was Active. Further, the Activity entry with Rattus norvegicus [21] and in the test with Rattus norvegicus [22] was “Dose-dependent effect” throughout.
